Columns and labels:
ADV-11 = conditions: reported; cited from earlier work
HSV-1 = conditions: reported; cited from earlier work
ENTV CVB1 = conditions: reported; cited from earlier work
HEP B = conditions: reported; cited from earlier work
HCV H strain NS5B = HCV H strain NS5B (Hepatitis C virus genotype 1a, UniProt P27958); conditions: reported; cited from earlier work
HSV-2 = conditions: reported; cited from earlier work
HEP C = conditions: reported; cited from earlier work
ENTV EV71 = conditions: reported; cited from earlier work
HIV-1 [1] = conditions: reported; cited from earlier work
ADV-8 = conditions: reported; cited from earlier work
ADV-3 = conditions: reported; cited from earlier work
Dengue virus = conditions: Cheung et al. 2014; cited from earlier work
[2] = test system: HTLV-1+ SLB1 lymphoma T-cell-line; experiment: Cytotoxicity/apoptosis in HTLV-1+ SLB1 lymphoma T-cells (Annexin V-FITC/PI); conditions: 72 hrs
ZIKV (PLCal_ZV strain) = experiment: Protection of ZIKV-induced cytopathic effect (CPE) with Neutral Red readout; assay type: cell-based, Zikavirus; conditions: CPE-based assay, Vero cells, 6 days
Procedure: (§1) A CPE-based antiviral assay was performed by infecting target cells in the presence or absence of test compositions, at a range of concentrations. […] cytopathic effects and cell death. […] For CPE-based assays, cell viability was determined with a neutral red readout. Viable cells incorporate neutral red in their lysosomes. Uptake of neutral red relies on the ability of live cells to maintain a lower pH inside their lysosomes than in the cytoplasm, and this active process requires ATP. Once inside the lysosome, the neutral red dye becomes charged and is retained intracellularly. […] The amount of neutral red in solution was quantified by reading the absorbance (optical density) of each well at 490 nm […]
(§2) Cytotoxic effects were evaluated in uninfected cells by comparing viability in the presence of inhibitors to the viability of mock-treated cells. Cytotoxicity was determined by an XTT viability assay, which was conducted at the same timepoint as the readout for the corresponding infection assay.
(§3) Test compositions were dissolved in 100% methanol. […] When possible, the EC50 and CC50 of the composition was determined for each assay using GraphPad Prism software. […]
Protection of ZIKV-induced cytopathic effect (CPE) with Neutral Red readout: For the ZIKV antiviral assay, the PLCal_ZV strain was used. […]

[3] = test system: DENV2 (08-10381 Montserrat strain); experiment: Protection of DENV2-induced cytopathic effect (CPE) with Neutral Red readout; assay type: cell-based, Dengue virus; conditions: CPE-based assay, Vero cells, 7 days
Procedure: as §1, §2, §3
Protection of DENV2-induced cytopathic effect (CPE) with Neutral Red readout: For the DENV2 antiviral assay, the 08-10381 Montserrat strain was used. […]

Marburgvirus (MARV/Ci67) = assay type: cell-based; conditions: compositions added to cells, then virus, 1 hr; FIGS. 3-4
HTLV-1 [4] = experiment: Virological synapse formation and HTLV-1 transmission in co-culture (fluorescence microscopy, gp21-positive huPBMCs); assay type: cell-based; conditions: SLB1/pLenti-GFP pre-treated 3 hrs, 10, 50, 100 μg/ml
rhinovirus = experiment: Antiviral activity against rhinovirus infection; conditions: concentrations and assays employed herein
Ebolavirus (EBOV/Kik) = assay type: cell-based; conditions: compositions added to cells, then virus, 1 hr; FIGS. 1-2
HTLV-1 [5] = experiment: HTLV-1 replication and release of p19Gag-containing particles from SLB1 cells (Anti-HTLV-1 p19Gag ELISA); assay type: cell-based; conditions: SLB1 cells, 10, 50, 100 μg/ml, 72 hrs
HIV-1 [6] = conditions: cited from earlier work
HTLV-1 [7] = experiment: HTLV-1 transmission in SLB1/huPBMC co-culture (p19Gag ELISA); assay type: cell-based; conditions: SLB1 pre-treated 15 min or 3 hrs, co-culture 72 hrs
HTLV-1 [8] = experiment: Infectivity of HTLV-1 particles from treated SLB1 cells on primary huPBMCs (p19Gag ELISA); assay type: cell-based; conditions: lowest concentration 10 μg/ml, relative to vehicle control

HCV H strain NS5B, sequence (P27958 2421-3011): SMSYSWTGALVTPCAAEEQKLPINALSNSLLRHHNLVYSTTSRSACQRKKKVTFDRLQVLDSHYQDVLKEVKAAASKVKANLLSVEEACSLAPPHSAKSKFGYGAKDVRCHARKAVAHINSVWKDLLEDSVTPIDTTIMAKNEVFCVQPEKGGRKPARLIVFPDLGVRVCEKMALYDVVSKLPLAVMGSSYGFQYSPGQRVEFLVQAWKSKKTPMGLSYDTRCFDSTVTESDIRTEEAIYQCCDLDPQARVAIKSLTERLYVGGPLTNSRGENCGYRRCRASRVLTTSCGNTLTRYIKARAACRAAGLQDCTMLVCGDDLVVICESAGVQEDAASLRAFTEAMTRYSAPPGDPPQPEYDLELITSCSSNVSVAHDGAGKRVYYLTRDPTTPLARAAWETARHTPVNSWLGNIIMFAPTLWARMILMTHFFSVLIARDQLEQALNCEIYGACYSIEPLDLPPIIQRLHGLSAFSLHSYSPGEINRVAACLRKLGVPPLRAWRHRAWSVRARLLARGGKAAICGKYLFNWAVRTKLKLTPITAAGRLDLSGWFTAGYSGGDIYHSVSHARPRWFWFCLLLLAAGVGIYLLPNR

C[C@H]1[C@H](C)CC[C@]2(C(=O)O)CC[C@]3(C)C(=CC[C@@H]4[C@@]5(C)CC[C@H](O)C(C)(C)[C@@H]5CC[C@]43C)[C@H]12 [Ursolic acid, ursolic acid]
anti-viral activity against ADV-11 (ADV-11): some anti-viral activity | anti-viral activity against HSV-1 (HSV-1): some anti-viral activity | anti-viral activity against ENTV CVB1 (ENTV CVB1): some anti-viral activity | anti-viral activity against HEP B (HEP B): some anti-viral activity | anti-viral activity against HCV H strain NS5B (HCV H strain NS5B): some anti-viral activity | anti-viral activity against HSV-2 (HSV-2): some anti-viral activity | anti-viral activity against HEP C (HEP C): some anti-viral activity | anti-viral activity against ENTV EV71 (ENTV EV71): some anti-viral activity | anti-viral activity against HIV-1 (HIV-1 [1]): some anti-viral activity | anti-viral activity against ADV-8 (ADV-8): some anti-viral activity | anti-viral activity against ADV-3 (ADV-3): some anti-viral activity

CC1(C)CC[C@]2(C(=O)O)CC[C@]3(C)C(=CC[C@@H]4[C@@]5(C)CC[C@H](O)C(C)(C)[C@@H]5CC[C@]43C)[C@@H]2C1 [Oleanolic acid, oleanolic acid]
anti-viral activity against HCV H strain NS5B (HCV H strain NS5B): some anti-viral activity | anti-viral activity against HEP C (HEP C): some anti-viral activity | anti-viral activity against HIV-1 (HIV-1 [1]): some anti-viral activity

CC(=O)O[C@H]1C[C@H](O[C@H]2[C@@H](O)C[C@H](O[C@H]3[C@@H](O)C[C@H](O[C@H]4CC[C@@]5(C)[C@H](CC[C@@H]6[C@@H]5C[C@@H](O)[C@]5(C)[C@@H](C7=CC(=O)OC7)CC[C@]65O)C4)O[C@@H]3C)O[C@@H]2C)O[C@H](C)[C@H]1O[C@@H]1O[C@H](CO)[C@@H](O)[C@H](O)[C@H]1O [lanatoside C]
antiviral activity against Dengue virus (Dengue virus): demonstrates antiviral activity

CO[C@H]1C[C@H](O[C@H]2CC[C@@]3(C)[C@H](CC[C@@H]4[C@@H]3CC[C@]3(C)[C@@H](C5=CC(=O)OC5)[C@@H](OC(C)=O)C[C@]43O)C2)O[C@@H](C)[C@@H]1O [oleandrin]
cellular viability of Vero E6 cells (Vero E6 cells): did not reduce cellular viability | cytotoxicity/apoptosis in SLB1 cells at the lowest concentration ([2]; 10 μg/ml): did not induce significant cytotoxicity/apoptosis | cytotoxicity in SLB1 cells compared with Vehicle control [2]: not significantly higher than the Vehicle control | efficacy against Zikavirus (ZIKV (PLCal_ZV strain)): demonstrates efficacy | efficacy against Dengue virus [3]: demonstrates efficacy | efficacy against Marburgvirus (dose response, based on oleandrin content) (Marburgvirus (MARV/Ci67)): efficacious | formation of virological synapses and transmission of HTLV-1 (HTLV-1 [4]): inhibited the formation of virological synapses and the transmission of HTLV-1 in vitro | activity against rhinovirus (viral replication) (rhinovirus): inactive | efficacy against Ebolavirus (dose response, based on oleandrin content) (Ebolavirus (EBOV/Kik)): efficacious | HTLV-1 replication / release of p19Gag-containing virus particles (HTLV-1 [5]): does not significantly inhibit | HIV-1 viral infectivity in vitro (HIV-1 [6]): inhibit viral infectivity in vitro | incorporation of gp120 envelope glycoprotein of HIV-1 into mature virus particles (HIV-1 [6]): prevent the incorporation | transmission of HTLV-1 in co-culture (extracellular p19Gag) (HTLV-1 [7]): inhibited the transmission of HTLV-1 as compared to the vehicle control | anti-viral activity against HIV-1 (HIV-1 [1]): demonstrated anti-HIV activity | infectivity of newly-synthesized p19Gag-containing virus particles on huPBMCs (HTLV-1 [8]): inhibited the infectivity

C[C@H]1O[C@@H](O[C@H]2[C@@H](O)C[C@H](O[C@H]3[C@@H](O)C[C@H](O[C@H]4CC[C@@]5(C)[C@H](CC[C@@H]6[C@@H]5C[C@@H](O)[C@]5(C)[C@@H](C7=CC(=O)OC7)CC[C@]65O)C4)O[C@@H]3C)O[C@@H]2C)C[C@H](O)[C@@H]1O [digoxin, reference compound]
cellular viability of Vero E6 cells (Vero E6 cells): did not reduce cellular viability

Reference: US20220047616A1, “Method and Compositions for Treating HTLV-1 Virus Infection” (priority 2019, published 2022)
